Data on 22 molecules can be found in US11839613B2, “Pyrimidine derivatives as PGE2 receptor modulators” (IDORSIA PHARMACEUTICALS LTD, priority 2017, dated 2023).

For experiment [1], the target named is PTGER4 (EP4) (Homo sapiens (Human), UniProt P35408). Kind of experiment: cell-based.
The target in experiment [2] is PTGER2 (EP2) (Homo sapiens (Human), UniProt P43116). The experiment in a line: hEP2 b-arrestin assay (PathHunter HEK 293 PTGER2 b-arrestin cells). It counts as cell-based. As to conditions: antagonistic activity, beta-arrestin assay; read-out: hEP2 b-arr IC50. The method, then:
Plate is pre-incubated 15 minutes at 37° C. Then five microliters of PGE2 (final conc. 5 μM) are transferred into the assay plate. Plate is incubated 120 minutes at 37° C.
(each concentration is measured in duplicate)

Chain of PTGER4 (EP4) (P35408 whole entry): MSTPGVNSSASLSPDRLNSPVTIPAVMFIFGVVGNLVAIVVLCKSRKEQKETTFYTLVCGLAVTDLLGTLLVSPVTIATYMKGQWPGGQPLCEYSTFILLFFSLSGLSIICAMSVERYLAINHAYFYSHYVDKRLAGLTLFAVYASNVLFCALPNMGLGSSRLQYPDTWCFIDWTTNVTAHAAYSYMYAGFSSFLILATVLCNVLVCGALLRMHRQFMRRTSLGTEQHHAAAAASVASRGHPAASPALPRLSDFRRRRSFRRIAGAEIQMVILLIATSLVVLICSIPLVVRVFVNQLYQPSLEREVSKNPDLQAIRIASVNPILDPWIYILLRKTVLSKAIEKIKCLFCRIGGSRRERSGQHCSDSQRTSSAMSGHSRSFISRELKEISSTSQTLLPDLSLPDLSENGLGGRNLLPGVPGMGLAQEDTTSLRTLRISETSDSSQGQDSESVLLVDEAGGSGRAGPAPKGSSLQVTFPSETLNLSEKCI
Chain of PTGER2 (EP2) (P43116 whole entry): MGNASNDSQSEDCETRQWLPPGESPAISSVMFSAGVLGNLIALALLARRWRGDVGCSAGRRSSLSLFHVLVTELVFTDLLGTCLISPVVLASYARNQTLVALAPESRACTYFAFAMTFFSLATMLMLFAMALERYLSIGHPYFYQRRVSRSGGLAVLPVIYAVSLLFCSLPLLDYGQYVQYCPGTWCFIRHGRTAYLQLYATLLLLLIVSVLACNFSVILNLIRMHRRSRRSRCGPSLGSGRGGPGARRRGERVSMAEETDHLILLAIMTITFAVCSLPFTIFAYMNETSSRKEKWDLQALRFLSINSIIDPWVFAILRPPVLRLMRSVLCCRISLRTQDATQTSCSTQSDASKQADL

With `CSc1cc(-c2cc(NCCc3cc4c(cc3OC(F)F)OCCO4)ncn2)ccc1C(=O)O` [Example 495, 4-{6-[2-(7-Difluoromethoxy-2,3-dihydro-benzo[1,4]dioxin-6-yl)-ethylamino]-pyrimidin-4-yl}-2-methylsulfanyl-benzoic acid], the figures for the 50% inhibitory concentration (IC50) in experiment [1] and in experiment [2] were 193 nM and 77 nM, respectively.

`COc1cc(-c2cc(NCCc3cc(F)c4sccc4c3)ncn2)ccc1CC(=O)O` [Example 475, (4-{6-[2-(7-Fluoro-benzo[b]thiophen-5-yl)-ethylamino]-pyrimidin-4-yl}-2-methoxy-phenyl)-acetic acid]: the values for the IC50 in experiment [1] and in experiment [2] were 62 nM and 663 nM, respectively.

With `CCCc1cc(-c2cc(NCCc3cc(C)c4sccc4c3)ncn2)ccc1C(=O)O` [Example 478, 4-{6-[2-(7-Methyl-benzo[b]thiophen-5-yl)-ethylamino]-pyrimidin-4-yl}-2-propyl-benzoic acid], the values for the IC50 in experiment [1] and in experiment [2] were 242 nM and 788 nM, respectively.

Consider `O=c1[nH]c(-c2ccc(-c3cc(NCCc4cc(F)c5sccc5c4)ncn3)cc2)no1` [Example 529, 3-(4-(6-((2-(7-fluorobenzo[b]thiophen-5-yl)ethyl)amino)pyrimidin-4-yl)phenyl)-[1,2,4]oxadiazol-5(4H)-one], for which the IC50 in experiment [1] came out at 55 nM; in experiment [2], 699 nM.

As for `COc1cc2ccccc2c(C)c1CCNc1cc(-c2ccc(CC(=O)O)c(OC(F)F)c2)ncn1` [Example 443, (2-Difluoromethoxy-4-{6-[2-(3-methoxy-1-methyl-naphthalen-2-yl)-ethylamino]-pyrimidin-4-yl}-phenyl)-acetic acid], the IC50 came to 29 nM in experiment [1] and 107 nM in experiment [2].

For the molecule `COc1cc(-c2cc(NCCc3cc4ccsc4c(F)c3OC)ncn2)ccc1CC(=O)O` [Example 485, (4-{6-[2-(7-Fluoro-6-methoxy-benzo[b]thiophen-5-yl)-ethylamino]-pyrimidin-4-yl}-2-methoxy-phenyl)-acetic acid], the IC50 in experiment [1] worked out at 122 nM; in experiment [2] it was 125 nM.

For `CSc1cc(-c2cc(NCCc3ccc4ccsc4c3C)ncn2)ccc1C(=O)O` [Example 473, 4-{6-[2-(7-Methyl-benzo[b]thiophen-6-yl)-ethylamino]-pyrimidin-4-yl}-2-methylsulfanyl-benzoic acid], the IC50 in experiment [1] worked out at 275 nM; in experiment [2] it was 137 nM.

In the case of `CCCc1cc(-c2cc(NCCc3ccc4scc(Cl)c4c3)ncn2)ccc1CC(=O)O` [Example 498, (4-{6-[2-(3-Chloro-benzo[b]thiophen-5-yl)-ethylamino]-pyrimidin-4-yl}-2-propyl-phenyl)-acetic acid], the IC50 in experiment [1] was found to be 107 nM; in experiment [2], 163 nM.

For `CCCc1cc(-c2cc(NCCc3cc(F)c4sccc4c3)ncn2)ccc1C(N)=O` [Example 457, 4-{6-[2-(7-Fluoro-benzo[b]thiophen-5-yl)-ethylamino]-pyrimidin-4-yl}-2-propyl-benzamide], the IC50 in experiment [1] was 176 nM; in experiment [2], 200 nM.

In the case of `CCOc1cc(-c2cc(NCCc3ccc4c(c3C)OCCO4)ncn2)ccc1C(=O)O` [Example 508, 2-Ethoxy-4-{6-[2-(5-methyl-2,3-dihydro-benzo[1,4]dioxin-6-yl)-ethylamino]-pyrimidin-4-yl}-benzoic acid], the values for the IC50 in experiment [1] and in experiment [2] were 748 nM and 85 nM, respectively.

In the case of `COc1cc(-c2cc(NCCc3c(OC)cc4ccccc4c3C)ncn2)ccc1CC(=O)O` [Example 384, (2-Methoxy-4-{6-[2-(3-methoxy-1-methyl-naphthalen-2-yl)-ethylamino]-pyrimidin-4-yl}-phenyl)-acetic acid], the results for the half-inhibitory concentration (IC50) in experiment [1] and in experiment [2] were 28 nM and 145 nM, respectively.

Consider `O=C(O)Cc1ccc(-c2cc(NCCc3cc(F)c4sccc4c3)ncn2)cc1OC(F)F` [Example 540, (2-Difluoromethoxy-4-{6-[2-(7-fluoro-benzo[b]thiophen-5-yl)-ethylamino]-pyrimidin-4-yl}-phenyl)-acetic acid], for which the figures for the half-inhibitory concentration (IC50) in experiment [1] and in experiment [2] were 146 nM and 339 nM, respectively.

Consider `CCc1cc(-c2cc(NCCc3c(OC)cc4c(c3C)OCCO4)ncn2)ccc1CC(=O)O` [Example 444, (2-Ethyl-4-{6-[2-(7-methoxy-5-methyl-2,3-dihydro-benzo[1,4]dioxin-6-yl)-ethylamino]-pyrimidin-4-yl}-phenyl)-acetic acid], for which the IC50 was determined as 43 nM in experiment [1] and 15 nM in experiment [2].

Turning to `O=C(O)c1ccc(-c2cc(NCCc3cc4c(cc3OC(F)F)OCCO4)ncn2)cc1OC1CCC1` [Example 494, 2-Cyclobutoxy-4-{6-[2-(7-difluoromethoxy-2,3-dihydro-benzo[1,4]dioxin-6-yl)-ethylamino]-pyrimidin-4-yl}-benzoic acid], the results for the IC50 in experiment [1] and in experiment [2] were 209 nM and 340 nM, respectively.

Regarding `CN1C(=O)NCc2ccc(-c3cc(NCCc4cc(F)c5sccc5c4)ncn3)cc21` [Example 530, 7-{6-[2-(7-Fluoro-benzo[b]thiophen-5-yl)-ethylamino]-pyrimidin-4-yl}-1-methyl-3,4-dihydro-1H-quinazolin-2-one], the concentration for half-maximal inhibition (IC50) in experiment [1] was determined as 44 nM; in experiment [2] it was 514 nM.

`CCOc1cc(-c2cc(NCCc3ccc4ccsc4c3C)ncn2)sc1C(=O)O` [Example 376, 3-Ethoxy-5-{6-[2-(7-methyl-benzo[b]thiophen-6-yl)-ethylamino]-pyrimidin-4-yl}-thiophene-2-carboxylic acid]: the IC50 in experiment [1] was 13 nM; in experiment [2] it was 50 nM.

On to `COc1cc2c(cc1CCNc1cc(-c3ccc(C(=O)O)c(OC4CC4)c3)ncn1)OCCO2` [Example 520, 2-Cyclopropoxy-4-{6-[2-(7-methoxy-2,3-dihydro-benzo[1,4]dioxin-6-yl)-ethylamino]-pyrimidin-4-yl}-benzoic acid], for which the IC50 amounted to 107 nM in experiment [1] and 19 nM in experiment [2].

In the case of `Cc1cc(-c2cc(NCCc3cc(F)c4sccc4c3)ncn2)cc(C)c1O` [Example 532, 4-{6-[2-(7-Fluoro-benzo[b]thiophen-5-yl)-ethylamino]-pyrimidin-4-yl}-2,6-dimethyl-phenol], the concentration for half-maximal inhibition (IC50) in experiment [1] is 69 nM; in experiment [2] it was 293 nM.

`CCCc1cc(-c2cc(NCCc3cc4ccsc4c(F)c3OC)ncn2)ccc1CC(=O)O` [Example 486, (4-{6-[2-(7-Fluoro-6-methoxy-benzo[b]thiophen-5-yl)-ethylamino]-pyrimidin-4-yl}-2-propyl-phenyl)-acetic acid]: the half-inhibitory concentration (IC50) in experiment [1] turned out to be 136 nM; in experiment [2], 95 nM.

Take `CCOc1c(C(=O)O)ccc(-c2cc(NCCc3cc(F)c4sccc4c3)ncn2)c1F` [Example 552, 2-Ethoxy-3-fluoro-4-{6-[2-(7-fluoro-benzo[b]thiophen-5-yl)-ethylamino]-pyrimidin-4-yl}-benzoic acid]: the IC50 in experiment [1] amounted to 385 nM; in experiment [2], 577 nM.

Take `O=c1nc(-c2ccc(-c3cc(NCCc4cc(F)c5sccc5c4)ncn3)cc2)o[nH]1` [Example 543, 5-(4-(6-((2-(7-fluorobenzo[b]thiophen-5-yl)ethyl)amino)pyrimidin-4-yl)phenyl)-[1,2,4]oxadiazol-3(2H)-one]: the IC50 in experiment [1] worked out at 124 nM; in experiment [2] it was 612 nM.

For the molecule `CCOc1cc(-c2cc(NCCc3cc4ccsc4cc3C)ncn2)cc(F)c1CC(=O)O` [Example 469, (2-Ethoxy-6-fluoro-4-{6-[2-(6-methyl-benzo[b]thiophen-5-yl)-ethylamino]-pyrimidin-4-yl}-phenyl)-acetic acid], the half-inhibitory concentration (IC50) in experiment [1] came to 480 nM; in experiment [2], 502 nM.
